Source: ChEMBL document CHEMBL1201862, “PubChem BioAssay data set” (2004)
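48-hour exposure; five concentrations; linearly interpolated endpoints. GI50 = concentration required for 50% inhibition of growth.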 Active and inactive are the calls of the source. Cut-off read from the data, not from the text of the source: active = GI50 up to about 1.1 µM and inactive = higher.

Tests used:
Assay in all cases: NCI anticancer screen, dose series, 48 h
CAKI-1 = test system: CAKI-1
CCRF-CEM = test system: CCRF-CEM
DMS-114 = test system: DMS-114
DMS-273 = test system: DMS-273
HOP-92 = test system: HOP-92
KM-20L2 = test system: KM-20L2
KM12 = test system: KM12
NCI-H522 = test system: NCI-H522
OVCAR-3 = test system: OVCAR-3
OVCAR-5 = test system: OVCAR-5
RPMI-8226 = test system: RPMI-8226
SF-268 = test system: SF-268
SF-295 = test system: SF-295
SK-MEL-2 = test system: SK-MEL-2
SK-OV-3 = test system: SK-OV-3
SR = test system: SR
TK-10 = test system: TK-10
BT-549 = test system: BT-549
MDA-N = test system: MDA-N
PC-3 = test system: PC-3

In the case of `C#CCN(N=O)C(=O)NC(CCCNC(=O)OCc1ccccc1)C(=O)OCc1ccccc1` (stereo not drawn), the GI50 (CAKI-1) is reported as 28.1 µM (inactive), the GI50 (CCRF-CEM) is reported as 22.8 µM (inactive) and the GI50 (DMS-114) is reported as 67.3 µM (inactive). For the same compound, the GI50 (DMS-273) was > 100 µM (inactive), the GI50 (HOP-92) was 30.9 µM (inactive) and the GI50 (KM-20L2) was > 100 µM (inactive). The GI50 (KM12) was > 100 µM (inactive), the GI50 (NCI-H522) was 13.2 µM (inactive) and the GI50 (OVCAR-3) was > 100 µM (inactive). For the same compound, the GI50 (OVCAR-5) was > 100 µM (inactive), the GI50 (RPMI-8226) was 63.2 µM (inactive) and the GI50 (SF-268) was 18.2 µM (inactive). The GI50 (SF-295) was > 100 µM (inactive), the GI50 (SK-MEL-2) was > 100 µM (inactive) and the GI50 (SK-OV-3) was > 100 µM (inactive). The GI50 (SR) was 34.8 µM (inactive) and the GI50 (TK-10) was > 100 µM (inactive).
In the case of `CCN1C(=O)/C(=C\c2coc3ccccc3c2=O)SC1=S`, the GI50 (CAKI-1) is reported as > 100 µM (inactive), the GI50 (CCRF-CEM) is reported as 65.6 µM (inactive) and the GI50 (DMS-114) is reported as > 100 µM (inactive). For the same compound, the GI50 (DMS-273) was 59 µM (inactive), the GI50 (HOP-92) was > 100 µM (inactive) and the GI50 (KM-20L2) was > 100 µM (inactive). The GI50 (KM12) was > 100 µM (inactive), the GI50 (NCI-H522) was 91.4 µM (inactive) and the GI50 (OVCAR-3) was > 100 µM (inactive). The GI50 (OVCAR-5) was > 100 µM (inactive), the GI50 (RPMI-8226) was > 100 µM (inactive) and the GI50 (SF-268) was 66.8 µM (inactive). For the same compound, the GI50 (SF-295) was 42 µM (inactive), the GI50 (SK-MEL-2) was > 100 µM (inactive) and the GI50 (SK-OV-3) was > 100 µM (inactive). The GI50 (SR) was 36.6 µM (inactive) and the GI50 (TK-10) was > 100 µM (inactive).
For `S=C1OC2CCCC[C@H]2O1` (stereo partly drawn), the GI50 (CAKI-1) was > 100 µM (inactive), the GI50 (CCRF-CEM) was > 100 µM (inactive) and the GI50 (DMS-114) was > 100 µM (inactive). For the same compound, the GI50 (DMS-273) was > 100 µM (inactive), the GI50 (HOP-92) was > 100 µM (inactive) and the GI50 (KM-20L2) was > 100 µM (inactive). The GI50 (KM12) was > 100 µM (inactive), the GI50 (NCI-H522) was > 100 µM (inactive) and the GI50 (OVCAR-3) was > 100 µM (inactive). The GI50 (OVCAR-5) was > 100 µM (inactive), the GI50 (RPMI-8226) was > 100 µM (inactive) and the GI50 (SF-268) was > 100 µM (inactive). The GI50 (SF-295) was > 100 µM (inactive), the GI50 (SK-MEL-2) was > 100 µM (inactive) and the GI50 (SK-OV-3) was > 100 µM (inactive). For the same compound, the GI50 (SR) was > 100 µM (inactive) and the GI50 (TK-10) was > 100 µM (inactive).
With `CN(C)CC1CCCC/C1=N/OC(=O)c1ccc(Cl)c(Cl)c1` (stereo not drawn) the GI50 (CAKI-1) was > 100 µM (inactive), the GI50 (CCRF-CEM) was > 100 µM (inactive) and the GI50 (DMS-114) was > 100 µM (inactive). For the same compound, the GI50 (DMS-273) was > 100 µM (inactive), the GI50 (HOP-92) was 66.5 µM (inactive) and the GI50 (KM-20L2) was > 100 µM (inactive). For the same compound, the GI50 (KM12) was > 100 µM (inactive), the GI50 (NCI-H522) was > 100 µM (inactive) and the GI50 (OVCAR-3) was > 100 µM (inactive). The GI50 (OVCAR-5) was > 100 µM (inactive), the GI50 (RPMI-8226) was > 100 µM (inactive) and the GI50 (SF-268) was > 100 µM (inactive). For the same compound, the GI50 (SF-295) was > 100 µM (inactive), the GI50 (SK-MEL-2) was > 100 µM (inactive) and the GI50 (SK-OV-3) was > 100 µM (inactive). For the same compound, the GI50 (SR) was > 100 µM (inactive) and the GI50 (TK-10) was > 100 µM (inactive).
For `Nc1ccc2c(c1)CC1c3ccccc3C(C2)c2ccccc21`, the GI50 (CAKI-1) was > 100 µM (inactive), the GI50 (CCRF-CEM) was 47.3 µM (inactive) and the GI50 (DMS-114) was > 100 µM (inactive). The GI50 (DMS-273) was > 100 µM (inactive), the GI50 (HOP-92) was > 100 µM (inactive) and the GI50 (KM-20L2) was > 100 µM (inactive). The GI50 (KM12) was > 100 µM (inactive), the GI50 (NCI-H522) was > 100 µM (inactive) and the GI50 (OVCAR-5) was > 100 µM (inactive). The GI50 (RPMI-8226) was 34.6 µM (inactive), the GI50 (SF-268) was > 100 µM (inactive) and the GI50 (SF-295) was > 100 µM (inactive). The GI50 (SK-MEL-2) was > 100 µM (inactive), the GI50 (SK-OV-3) was > 100 µM (inactive) and the GI50 (SR) was 9.68 µM (inactive). For the same compound, the GI50 (TK-10) was > 100 µM (inactive).
In the case of `CNC(=O)NC(CCCCNC(=O)OCc1ccccc1)C(=O)OCc1ccccc1` (stereo not drawn), the GI50 (BT-549) is reported as > 78.2 µM (inactive), the GI50 (CAKI-1) is reported as 47.6 µM (inactive) and the GI50 (CCRF-CEM) is reported as 14.7 µM (inactive). The GI50 (DMS-114) was 28.1 µM (inactive), the GI50 (DMS-273) was 35.9 µM (inactive) and the GI50 (HOP-92) was 16.6 µM (inactive). The GI50 (KM-20L2) was > 100 µM (inactive), the GI50 (KM12) was > 100 µM (inactive) and the GI50 (MDA-N) was 19.5 µM (inactive). The GI50 (NCI-H522) was 12.6 µM (inactive), the GI50 (OVCAR-3) was 21.1 µM (inactive) and the GI50 (OVCAR-5) was > 61.4 µM (inactive). For the same compound, the GI50 (PC-3) was 45.1 µM (inactive), the GI50 (RPMI-8226) was 24.9 µM (inactive) and the GI50 (SF-268) was 57.3 µM (inactive). For the same compound, the GI50 (SF-295) was 60.8 µM (inactive), the GI50 (SK-MEL-2) was 17.8 µM (inactive) and the GI50 (SK-OV-3) was > 100 µM (inactive). The GI50 (SR) was 19.9 µM (inactive) and the GI50 (TK-10) was 38.3 µM (inactive).
For `CCCCCCCC/C=C1\CCC(CN(C)C)C1=O` (stereo not drawn), the GI50 (CAKI-1) was 3.1 µM (inactive), the GI50 (CCRF-CEM) was 1.54 µM (inactive) and the GI50 (DMS-114) was 4.01 µM (inactive). For the same compound, the GI50 (DMS-273) was 2.43 µM (inactive), the GI50 (HOP-92) was 3.33 µM (inactive) and the GI50 (KM-20L2) was 7.6 µM (inactive). For the same compound, the GI50 (KM12) was 2.31 µM (inactive), the GI50 (NCI-H522) was 3.54 µM (inactive) and the GI50 (OVCAR-3) was 7.18 µM (inactive). The GI50 (OVCAR-5) was 20.2 µM (inactive), the GI50 (RPMI-8226) was 0.211 µM (active) and the GI50 (SF-268) was 7.29 µM (inactive). The GI50 (SF-295) was 6.5 µM (inactive), the GI50 (SK-MEL-2) was 12 µM (inactive) and the GI50 (SK-OV-3) was 17.2 µM (inactive). The GI50 (SR) was 3.15 µM (inactive) and the GI50 (TK-10) was 2.54 µM (inactive).
For `O=C1C2C3C=CC(C2C(=O)N1COP(=O)(O)O)C1C2C(=O)N(COP(=O)(O)O)C(=O)C2C31` (stereo not drawn), the GI50 (CAKI-1) was > 100 µM (inactive), the GI50 (CCRF-CEM) was > 42.4 µM (inactive) and the GI50 (DMS-114) was > 41.7 µM (inactive). For the same compound, the GI50 (DMS-273) was > 41.4 µM (inactive), the GI50 (HOP-92) was > 100 µM (inactive) and the GI50 (KM-20L2) was > 100 µM (inactive). For the same compound, the GI50 (KM12) was > 100 µM (inactive), the GI50 (NCI-H522) was > 100 µM (inactive) and the GI50 (OVCAR-3) was > 100 µM (inactive). The GI50 (OVCAR-5) was > 100 µM (inactive), the GI50 (RPMI-8226) was > 46.1 µM (inactive) and the GI50 (SF-268) was > 67.5 µM (inactive). The GI50 (SF-295) was > 100 µM (inactive), the GI50 (SK-MEL-2) was > 100 µM (inactive) and the GI50 (SK-OV-3) was > 100 µM (inactive). The GI50 (SR) was 17.5 µM (inactive) and the GI50 (TK-10) was > 100 µM (inactive).
